Data on three compounds can be found in US20260069599A1, “INHIBITORS OF BROMODOMAIN-CONTAINING PROTEIN 4 AND PHOSPHOINOSITIDE 3-KINASE” (Board of Regents of the University of Nebraska, priority 2022, published 2026).

For one data set, the target named is BRD4-BD2 (Homo sapiens, UniProt O60885). Nature of the data set: Protein Thermal Shift (PTS) assay on BRD4-BD2. The class given is binding. On the set-up: polyhistidine (N, cleaved yes); made in house; host or cells: E. coli (T7 express). The note with it: 100 μM ligand, 20 μM BD protein. On the procedure:
The genes encoding human BRD2-BD1, BRD2-BD2, and BRD4-BD2 were codon-optimized for expression in E. coli. […] The sequence-confirmed plasmids were used to transform T7 express E coli. Large-scale cell cultures were grown in LB media containing […] carbenicillin and incubated with shaking at 37° C. until the OD600 nm reached 0.6. Then cultures were cooled to 16° C., and 1 mM isopropyl β-D-1-thiogalactopyranoside was added to induce the protein expression. After 20 hours of incubation, cells were harvested. The resulting cell pellet was resuspended in a lysis buffer containing 50 mM Tris pH 7.5, 200 mM NaCl, 0.5 mM imidazole, and 0.3 mM tris(2-carboxyethyl) phosphine (TECP). After the addition of DNase I and lysozyme, the cell suspension was incubated on ice for 30 minutes and lysed by sonication. The lysate was clarified by centrifugation at 12,000 rpm for 45 minutes. The resulting supernatant was applied to a 5 mL metal affinity cobalt column pre-equilibrated with lysis buffer. Then, 25 column volumes of lysis buffer were passed through the column to eliminate unbound E coli proteins. Recombinant protein was eluted isocratically with the elution buffer containing 50 mM Tris pH 7.5, 200 mM NaCl, 150 mM imidazole, and 0.3 mM TECP. The rhinovirus 3C protease was added to the eluted recombinant protein to cleave the N-terminal Histidine tag and the sample dialyzed against a buffer containing 50 mM Tris pH 7.5, 100 mM NaCl and 0.3 mM TECP. After 12 hours, the protein solution was passed through a 5 ml cobalt column, which was pre-equilibrated with dialysis buffer, and the recombinant protein lacking the His-tag was collected from the flowthrough.
Each reaction used 20 μM concentration of recombinant BD protein in a 50 mM Tris pH 7.5 buffer containing 100 mM NaCl, 0.3 mM tris(2-carboxyethyl) phosphine HCl, and 1% dimethyl sulfoxide. Protein Thermal Shift Dye (ThermoFisher) was also added at 1× concentration. Under these conditions, 3 protein melting curves with each respective BD and 100 μM final concentration of ligand were performed from 25 to 95° C. with a ramp rate of 0.5° C./minute. Evaluation of the derivative of the fluorescence signal employed the Applied Bioscience Protein Thermal Shift Software version 1.3 to determine the average melting temperature (Tm) for each sample and the standard deviation(s) of those Tm values.

The subject of data set [1] is HD-MB03 cells. The experiment in a line: Cell viability MTT assay in HD-MB03 cells. The class given is cell-based, human. The method, then: For cell viability assay, DAOY cells from SHH-MB group and HD-MB03 from Group 3 MB were exposed to new analogs in a range of concentrations. In brief, cells were seeded in 96-well plate with a density of 3×10^3 cells/well density for 16 hours. Cells were then treated with different drug concentrations for 48-72 hours. MTT assay reagent was added to the cells and after incubation for 4 hours, formazan crystals were dissolved in 200 μL DMSO, and the absorbance was determined using a microplate reader (Molecular Devices Me5). The IC50 was determined by nonlinear least square regression by performing each experiment in triplicate.
For orientation: Formazan colour is commonly taken as a measure of viable cells.

For data set [2], the system named is HD-MB03 cells. The experiment in a line: Cell cycle analysis in HD-MB03 cells. It is filed as cell-based, human. The following applies: 5 μM, 48 hours; control 44.7%. The text has this:
FIGS. 3A-3F show the effect of MDP5 treatment on cell cycle analysis, induction of apoptosis, and colony formation assay in MB cells. […] Histograms show the quantitative analysis of cell cycle assay for DAOY (FIG. 3A) and HD-MB03 (FIG. 3B) cells (n=5; mean±S.D., p<0.05). […] FIG. 3C provides images of cells treated with the indicated compounds. […] FIGS. 3D and 3E provide graphs of the apoptotic assay showing higher numbers of apoptotic cells in MDP5 treated groups (n=5; mean±S.D.; p<0.05). FIG. 3F provides a graph of the relative expression of BCL2 and MYCN target genes after treatment, as determined by RT-PCR.
Cell cycle distribution was determined in proliferating MB cells. […] Cells were harvested with 0.25% EDTA-free trypsin (Gibco) and washed twice in ice-cold PBS. Control and treated cells (0.1×10^6) were stained with FxCycle™ PI/RNase Staining Solution (ThermoFisher Scientific) and analyzed for DNA content via flow cytometry.

The test system of another data set is DAOY and HDMB-03 cells. The experiment in a line: Transwell migration assay. It is filed as cell-based, human. The following applies: vs control. The method, then: FIGS. 2A-2D show the effect of MDP5 treatment on cell viability and migration potential in MB cells. FIGS. 2A and 2B provide graphs of cell viability assays with DAOY cells (FIG. 2A) and HD-MB03 cells (FIG. 2B) with the indicated compounds. FIG. 2C provides images of the Transwell® migration assay and FIG. 2D provides quantitation of the Transwell® migration assay (top: DAOY cells; bottom: HD-MB03 cells). Cells were fixed in formalin and stained with 0.5% crystal violet for 30 minutes. Images were taken using a microscope at 20× objective. Stained cells were then dissolved in acetic acid solution and optical density (OD) was measured at 590 nm. Scale bar: 100 μm. **P<0.01 and ***P<0.001 vs Control.
Further, the effect of MDPS on cell migration was investigated.

For data set [3], the system named is DAOY and HD-MB03 cell-generated tumors. Nature of the data set: Subcutaneous MB tumor xenograft model. It is filed as in vivo. The note with it: for tumor growth / tumor burden: 15 mg/kg dose, vs vehicle treated control. The method, then:
All the animal-related experiments were performed according to the Institutional Animal Care and Use Committee (IACUC) of the University of Nebraska Medical Center's approved protocol and met federal guidelines. Subcutaneous and orthotopic xenograft models were generated in this study. For establishing the xenograft model, DAOY cells (1×10^6) were injected into the right flank of 8-10 weeks old male and female mice. Tumor growth was measured non-invasively by using vernier calipers. For both measurements, tumor volumes were calculated by using the following formula: Volume=(Length×Width^2)/2.
A total of seven injections were given, and the mouse body weights were measured before every injection. The tumor growth was monitored by calipers in the case of the xenograft model and by IVIS imaging for the orthotopic model. For histological examination, the major organs of representative mice from each animal group were dissected and stained with H&E. Tissues after being fixed with 10% paraformaldehyde solution for 24 hours were embedded in 5 μm thick sections of paraffin, and were stained for different proteins. Stained slides were imaged at 40× magnification using an iScan HT Slide Scanner (Ventana Medical Systems, Inc, AZ).

In another data set the test system is ONS-76 cells. Nature of the data set: Side population (SP) assay. The following applies: 30 minutes preincubation; control 4.57%. The class given is cell-based. On the procedure: After washing thrice with staining buffer, 1×10^6 cells were stained with 5 μg/mL of Hoechst 33342 (Thermo Scientific; 62,249) for 1 hour in an incubator with occasional shaking every 20 minutes. The PI solution 5 μL was added to exclude dead cells and analyzed with flow cytometry (LSRII, BD Biosciences).

Structures are written as SMILES. “Also recorded” adds a separate entry of the source. Read-outs that look alike come from different tables or passages of the source.

Turning to `O=C(/C=C/N1CCOCC1)c1cccc(-c2cc3c(cc2Br)OCCO3)c1O` [MDP1, (E)-1-(3-(7-bromo-2,3-dihydrobenzo [b][1,4]dioxin-6-yl)-2-hydroxyphenyl)-3-morpholinoprop-2-en-1-one], the “BRD4-BD2 Tm decrease” value at BRD4-BD2 (thermal destabilization) is 1.3 °C. Further, the IC50 in the data set on HD-MB03 cells [1] (Homo sapiens, HD-MB03, 48-72 hours, read-out: IC50 in HD-MB03 cells) worked out at 5.56 µM. In the data set on HD-MB03 cells [2], the “cells in the G1 phase, HD-MB03” value is listed as 26.2%. The “cells migrated in Transwell migration assay” value (from here on “cells migrated”) in the data set with DAOY and HDMB-03 cells is “decreased the amount of DAOY and HDMB-03 cells migrated”. Also, the “tumor growth / tumor burden” value in data set [3] is reported as “significant inhibition of tumor growth”. The “percentage of SP proportion” value in the data set with ONS-76 cells is recorded as 0.7%.
Regarding `O=c1cc(N2CCOCC2)oc2c(-c3ccc4c(c3)OCCO4)cccc12` [MDP5, 8-(2,3-dihydrobenzo [b][1,4]dioxin-6-yl)-2-morpholino-4H-chromen-4-one], the “BRD4-BD2 Tm increase” value on BRD4-BD2 is 1.7 °C. In addition, in the data set on HD-MB03 cells [1] (Homo sapiens, HD-MB03, 48-72 hours, read-out: IC50 in HDMB-03 cells (unit printed M)), the IC50 stood at 5.14 µM. Also, the “cells in the G1 phase, HD-MB03” value with HD-MB03 cells [2] is 52.2%. Besides, the “cells migrated” value with DAOY and HDMB-03 cells is recorded as “decrease migration significantly”. Further, the “tumor growth / tumor burden” value in data set [3] was “significant inhibition of tumor growth”. For the same compound, the “toxicity / tolerability by body weight” value in data set [3] (20 mg/kg i.v. every third day) is listed as “no sign of toxicity; also recorded: well tolerated (no bodyweight change)”. Also, the “histologic examination of major organs (liver, lung, spleen, heart, kidneys)” value in data set [3] (20 mg/kg, after completion of treatment) is “did not demonstrate toxicity”. Also, the “tumor growth (tumor volume)” value in data set [3] (20 mg/kg, vs vehicle/control group) is recorded as “significantly affected tumor growth; also recorded: reduced tumor growth compared to the control group”. Besides, in data set [3] (DAOY and HD-MB03 generated tumors), the “H&E staining and Ki-67 IHC of tumors” value was “suppressed cell proliferation and decreased tumor burden”. For the same compound, the “tolerability by body weight and histological examination of vital organs” value in data set [3] (tested dose of b195 (15 mg/kg), vs vehicle control) was “well tolerated”. For the same compound, the “percentage of SP proportion” value with ONS-76 cells was found to be 0.9%.
`O=c1cc(N2CCOCC2)oc2c(-c3ccc4c(c3)OCCO4)csc12` [SF2523, reference compound]: the “BRD4-BD2 Tm increase” value at BRD4-BD2 stood at 3.4 °C. Moreover, the half-inhibitory concentration (IC50) in the data set on HD-MB03 cells [1] (48-72 hours, read-out: IC50 in HD-MB03 cells) was determined as 5.14 µM. Also, the “cells in the G1 phase, HD-MB03” value with HD-MB03 cells [2] is 58.9%. Further, in the data set on DAOY and HDMB-03 cells, the “cells migrated” value was “decreased the amount of DAOY and HDMB-03 cells migrated”. Moreover, the “tumor growth / tumor burden” value in data set [3] is “significant inhibition of tumor growth”. Further, the “percentage of SP proportion” value in the data set on ONS-76 cells is given as 2.57%.

The term IC50 denotes the concentration that gives 50% inhibition.
